Tests used:
[1] = tested on: HCV RNA Replicons; test: HCV RNA replicon antiviral activity testing (luciferase); format: cell-based, Hepatitis C virus; settings: for inhibition at 20 µM: Hepatitis C virus, 20 micromolar, read-out: Antiviral Activity (luciferase, percent inhibition of virus control)
[2] = tested on: Huh7 ET; test: Cytotoxicity in the HCV replicon cell line (actively dividing cells); format: cell-based; settings: single high test concentration, 20 micromolar
Text: The cell line used was Huh7 ET.

[3] = molecular target: T1, Aβ (1-40) (Homo sapiens, UniProt P05067); test: Thioflavin T fluorometric assay of metal-ion induced Aβ aggregation; format: biochemical; settings: test compound 10 μg/ml, 24 hours
T1 construct: A 5 mg/ml stock solution of Aβ (1-40) (delivered from Bachem (CH)); purchased Bachem (CH)
T1 sequence (P05067 672-711 limits assumed): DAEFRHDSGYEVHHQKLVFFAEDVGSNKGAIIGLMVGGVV
Experimental: A 5 mg/ml stock solution of Aβ (1-40) (delivered from Bachem (CH)) was freshly prepared before each experiment by dissolving the lyophilized peptide in 0.01 M HCl, followed by subsequent dilution 1.1 with 0.01 M NaOH to yield a neutral pH. Aliquot of Aβ (1-40) were diluted in PBS (pH 7.4) to 100 [mu]M and incubated at a total volume of 30 μ/l for 24 hours at room temperature. For co-incubation experiments, the indicated concentrations of metal ions and/or aliquot of test compounds were added. The test compounds were added to a final molar concentration of 10 μg/ml.
The amyloid formation was quantified by a thioflavin T fluorometric assay. Thioflavin binds specifically to amyloid and this introduces a shift in its emission spectrum and a fluorescent signal proportional to the amount of amyloid is formed. After incubation, Aβ (1-40) peptides were added to PBS (pH 6.0) and 3 μM thioflavin T in a final volume of 1 ml. Fluorescence was monitored at excitation 454 nm and emission 482 nm using a Fluoroscan II fluorometer (Molecular devices, UK). A time scan of fluorescence was performed and three values after the decay reached a plateau (around 5 minutes) were averaged after subtracting the background fluorescence of 3 μM thioflavin T. For co-incubation experiments, fluorescence of test compound alone was determined. Samples were run in triplicate.
It was studied whether the two compounds had any effect on metal-ion catalysed Aβ aggregation, especially the aggregation caused by Zn and Cu.

[4] = molecular target: T2, MMP-1 (Homo sapiens, UniProt P03956); test: MMP enzyme assay, fluorometric; format: biochemical
T2 sequence (P03956 100-469): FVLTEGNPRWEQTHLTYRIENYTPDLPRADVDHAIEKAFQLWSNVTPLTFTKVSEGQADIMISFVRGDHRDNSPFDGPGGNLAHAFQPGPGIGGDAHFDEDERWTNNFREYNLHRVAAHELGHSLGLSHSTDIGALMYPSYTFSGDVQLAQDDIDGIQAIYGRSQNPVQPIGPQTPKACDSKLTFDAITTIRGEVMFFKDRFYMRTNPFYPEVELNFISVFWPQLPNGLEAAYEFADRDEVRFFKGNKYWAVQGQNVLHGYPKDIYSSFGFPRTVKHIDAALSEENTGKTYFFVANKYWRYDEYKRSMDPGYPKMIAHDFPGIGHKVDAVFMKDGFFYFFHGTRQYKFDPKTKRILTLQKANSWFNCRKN
Experimental: (§1) An enzyme assay was conducted with five of the enzymes belonging to the MMP group. Specifically, the assay was conducted for MMP-1, MMP-2, MMP-3, MMP-7, and MMP-9 at various concentrations.
(§2) A test substrate of Mca-Pro-Leu-Gly-Leu-Dpa-Ala-Arg-NH2 was subsequently added to obtain a concentration of 25 μM. MMP-1 was incubated for 2 hours at 37EC, MMP-2 was incubated for 3 hours at 25EC, MMP-3 was incubated for 90 min at 37EC. MMP-7 was incubated for 90 min at 37EC, and MMP-9 was incubated for 2 hours at 25 degrees Celsius. The activity of the enzymes was measured by fluorometric quantisation of Mca-Pro-Leu-Gly-OH.

[5] = molecular target: T3, MMP-2 (Homo sapiens, UniProt P08253); test: MMP enzyme assay, fluorometric; format: biochemical
T3 sequence (P08253 110-660): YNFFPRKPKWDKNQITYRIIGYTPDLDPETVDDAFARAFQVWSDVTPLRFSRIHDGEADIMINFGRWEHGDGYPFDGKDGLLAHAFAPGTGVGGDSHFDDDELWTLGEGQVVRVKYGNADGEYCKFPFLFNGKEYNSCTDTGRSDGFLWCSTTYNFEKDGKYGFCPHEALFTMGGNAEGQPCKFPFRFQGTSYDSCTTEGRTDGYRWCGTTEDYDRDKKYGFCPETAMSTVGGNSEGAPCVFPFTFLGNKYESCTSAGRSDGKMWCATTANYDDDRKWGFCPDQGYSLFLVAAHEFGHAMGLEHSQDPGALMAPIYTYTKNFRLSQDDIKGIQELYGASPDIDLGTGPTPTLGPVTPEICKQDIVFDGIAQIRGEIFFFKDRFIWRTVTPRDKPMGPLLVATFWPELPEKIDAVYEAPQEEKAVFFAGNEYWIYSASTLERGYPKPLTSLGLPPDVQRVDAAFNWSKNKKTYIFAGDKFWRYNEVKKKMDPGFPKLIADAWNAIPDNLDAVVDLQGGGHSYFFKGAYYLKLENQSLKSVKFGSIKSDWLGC
Experimental: as §1, §2

[6] = molecular target: MMP-3 (Homo sapiens, UniProt P08254); test: MMP enzyme assay, fluorometric; format: biochemical
MMP-3, sequence (P08254 100-477, species assumed): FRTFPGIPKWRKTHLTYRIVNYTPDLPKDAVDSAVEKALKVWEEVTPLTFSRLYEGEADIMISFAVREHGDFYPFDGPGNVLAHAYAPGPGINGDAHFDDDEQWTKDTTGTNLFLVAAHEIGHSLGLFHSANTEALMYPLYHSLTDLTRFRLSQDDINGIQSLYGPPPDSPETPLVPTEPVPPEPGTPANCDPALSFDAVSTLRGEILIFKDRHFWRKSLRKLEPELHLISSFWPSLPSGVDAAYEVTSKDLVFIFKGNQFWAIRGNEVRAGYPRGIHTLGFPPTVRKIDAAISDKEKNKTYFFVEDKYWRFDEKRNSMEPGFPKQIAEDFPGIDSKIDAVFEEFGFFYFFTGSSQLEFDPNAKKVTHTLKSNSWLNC
Experimental: as §1, §2

[7] = molecular target: T4, MMP-7 (Homo sapiens, UniProt P09237); test: MMP enzyme assay, fluorometric; format: biochemical
T4 sequence (P09237 95-267): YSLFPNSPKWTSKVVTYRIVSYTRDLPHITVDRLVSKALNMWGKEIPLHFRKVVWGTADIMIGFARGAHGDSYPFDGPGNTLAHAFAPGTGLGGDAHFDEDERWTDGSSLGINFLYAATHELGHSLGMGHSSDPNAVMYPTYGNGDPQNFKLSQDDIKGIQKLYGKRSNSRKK
Experimental: as §1, §2

[8] = molecular target: MMP-9 (Homo sapiens, UniProt P14780); test: MMP enzyme assay, fluorometric; format: biochemical
MMP-9, sequence (P14780 94-707, species assumed): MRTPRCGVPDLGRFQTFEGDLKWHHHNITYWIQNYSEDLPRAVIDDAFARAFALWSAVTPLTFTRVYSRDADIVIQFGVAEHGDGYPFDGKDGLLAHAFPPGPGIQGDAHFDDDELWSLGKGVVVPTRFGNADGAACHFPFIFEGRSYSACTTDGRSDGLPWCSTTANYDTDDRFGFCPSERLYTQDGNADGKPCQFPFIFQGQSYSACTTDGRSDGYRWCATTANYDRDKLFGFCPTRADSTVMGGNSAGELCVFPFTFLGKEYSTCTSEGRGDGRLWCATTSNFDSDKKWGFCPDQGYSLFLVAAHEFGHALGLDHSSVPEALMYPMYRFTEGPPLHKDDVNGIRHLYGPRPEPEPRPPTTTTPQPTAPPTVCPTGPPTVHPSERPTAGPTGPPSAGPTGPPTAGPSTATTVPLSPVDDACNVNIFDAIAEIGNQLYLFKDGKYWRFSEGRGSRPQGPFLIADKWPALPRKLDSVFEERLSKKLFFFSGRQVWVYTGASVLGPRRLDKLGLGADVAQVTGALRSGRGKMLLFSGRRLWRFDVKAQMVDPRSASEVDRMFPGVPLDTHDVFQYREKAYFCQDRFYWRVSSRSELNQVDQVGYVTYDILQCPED
Experimental: as §1, §2

[9] = tested on: hepatitis B (HBV); test: NIH hepatitis B screening; format: cell-based, hepatitis B virus; settings: negative because of cytotoxicity of the cell line used
Text: The HBV research is run by the University of Georgetown (Dr. Brent Korba). The results with HBV were negative at this point because of cytotoxicity of the cell line used.

[10] = cited from earlier work
[11] = tested on: PC12 cells; test: MTT reduction, Aβ (25-35) induced toxicity in PC12 cells; format: cell-based, Rat; settings: 10 μg phanquinone per ml
Experimental: Aβ (25-35) was delivered by Bachem (CH) or Sigma (USA) and dissolved in phosphate buffered saline (PBS) at pH 7, 4, 2 hours prior to application.
Rat PC12 pheochromocytoma cells were grown in Dulbecco's modified Eagle's medium (DMEM) containing 1% penicillin-streptomycin, 5% fetal calf serum and 10% horse serum in humidified incubator with 5% CO2.
PC12 cells were plated on 96-wells microtiter plates in 100 μl of the appropriate medium. After 24 hours the indicated concentrations of Aβ (25-35) peptide was added alone or together with phanquinone in the designated concentrations. Incubation continued for 24 hours. Following incubation, MTT reduction was measured using a commercially available assay according to the manufacturer's (Boehringer Mannheim) instructions. Assay values obtained by vehicle alone were defined as 100%.
MTT is a substrate for intracellular and plasma membrane oxidoreductases and has been widely used to measure reductions of cell redox activity.
To test the effect of phanquinone on Aβ (25-35) induced toxicity in PC12 cells, PC12 cells were exposed to Aβ (25-35) peptide concentrations ranging from 0 to 10 μM. In the absence of phanquinone (i.e. only vehicle added) Aβ (25-35) produced a dose-dependent inhibition of MTT reduction. […]

[12] = brain; cited from earlier work
[13] = cited from earlier work; remark: listed apart in the source
[14] = single high test concentration, Huh7 ET

## Oc1c(I)cc(Cl)c2cccnc12 [Clioquinol, 5-chloro-7-iodo-8-hydroxyquinoline]
[1]; [14]
  inhibition at 20 µM: 82.3%
  Comments (screening verdict): Potentially active
[1]; retesting dose response
  selectivity index S150: over 4.8
  selectivity index S190: 14
[2]
  Cytotoxicity (actively dividing cells, percent cell control): 73.3%
[3]
  reduction of Cu-induced aggregation of Aβ (1-40): approximately 30%
  reduction of Zn-induced aggregation of Aβ (1-40): more than 60%
[4]
  inhibition at 100 µM: 12%
[5]
  inhibition at 100 µM: 28%
  inhibition at 1000 µM: 26%
  inhibition at 10000 µM: 101%
[6]
  inhibition at 100 µM: 7%
[7]
  inhibition at 100 µM: 20%
[8]
  inhibition at 100 µM: 19%
[9]
  results with HBV: negative
[10]
  solubility in water: Practically insoluble in water

## O=C1C(=O)c2ncccc2-c2cccnc21 [Phanquinone, 4,7-phenanthroline-5,6-dione]
[1]; [14]
  inhibition at 20 µM: 83.2%
  Comments (screening verdict): Toxic
  Selectivity Index: <1
[1]; retest with dose response curve, Huh7 ET
  activity against HCV RNA replicons: no activity
[2]
  Cytotoxicity (actively dividing cells, percent cell control): 10.5%
[3]
  reduction of Cu-induced aggregation of Aβ (1-40): 50-60%
  reduction of Zn-induced aggregation of Aβ (1-40): approximately 10%
[11]; Aβ 10 μM, 24 hours
  inhibition of MTT reduction by Aβ (25-35): around 10%
[11]; Aβ as high as 1 μM
  effect on the toxic effect of Aβ (25-35): completely counteracted
[9]
  results with HBV: negative
[12]
  ability of copper chelation compared to clioquinol: three times more pronounced
[13]; in vivo
  adverse effect on the nervous system: no evidence
  deaths, fetal malformations, drug interactions or carcinogenicity related to treatment: no reports
[13]; most often 200-400 mg/day for 7 to 10 days
  tolerability: well tolerated
